The text below walks through data of patent publication US20260028354A1, “TETRAHYDRONAPHTHALENE DERIVATIVES AS ESTROGEN RECEPTOR DEGRADERS” (REGENT OF THE UNIVERSITY OF MICHIGAN, priority 2022, published 2026).

This experiment can be described thus: Western blot analysis for "B" compounds. In kind it is cell-based. The settings on record: read-out: Traditional Western Degradation Potency (DC50). Put shortly: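 Compound-treated cells lysed in RIPA buffer with protease inhibitors; equal protein (BCA) run on 10% SDS-PAGE, transferred to PVDF and probed with target antibodies. Band intensities quantified by densitometry and normalized to GAPDH.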
On the technique in general: In western blotting, separated proteins are transferred to a membrane and probed.
By DC50 is commonly meant the concentration at which degradation of the target reaches its halfway point. `CN(CC1CN(c2ccc([C@@H]3c4ccc(O)cc4CC[C@@H]3c3ccccc3)cc2)C1)C1CCC(N2Cc3cc4c(cc3C2)C(=O)N(C2CCC(=O)NC2=O)C4=O)CC1` (stereo partly drawn) [Compound B95, 2-(2,6-dioxopiperidin-3-yl)-6-(4-(((1-(4-((1R,2S)-6-hydroxy-2-phenyl-1,2,3,4-tetrahydronaphthalen-1-yl)phenyl)azetidin-3-yl)methyl)(methyl)amino)cyclohexyl)-6,7-dihydropyrrolo[3,4-f]isoindole-1,3(2H,5H)-dione]: the DC50 is greater than 0.1 µM.
Turning to “3-(6-((1R,4r)-4-(3-((4-((1R,2S)-6-hydroxy-2-phenyl-1,2,3,4- tetrahydronaphthalen-1-yl)phenyl)amino)azetidin-1- yl)cyclohexane-1-carbonyl)-1-oxo-3,5,6,7- tetrahydropyrrolo[3,4-f]isoindol-2(1H)-yl)piperidine-2,6-dione [Compound B115]”, the DC50 was greater than 0.1 µM.
For the compound `O=C1CCC(N2C(=O)c3cc4c(cc3C2=O)CN(CCN2CCC3(CC2)CCN(c2ccc([C@@H]5c6ccc(O)cc6CC[C@@H]5c5ccccc5)cc2)CC3)C4)C(=O)N1` (mixture of isomers) [Compound B198, 2-(2,6-dioxopiperidin-3-yl)-6-(2-(9-(4-((1R,2S)-6-hydroxy-2-phenyl-1,2,3,4-tetrahydronaphthalen-1-yl)phenyl)-3,9-diazaspiro[5.5]undecan-3-yl)ethyl)-6,7-dihydropyrrolo[3,4-f]isoindole-1,3(2H,5H)-dione], the DC50 lay within 0.01 to 0.1 µM.
As to `O=C1CCC(N2C(=O)c3cc4c(cc3C2=O)CN([C@H]2CC[C@H](NC3CCN(c5ccc([C@@H]6c7ccc(O)cc7CC[C@@H]6c6ccccc6)cc5)CC3)CC2)C4)C(=O)N1` (stereo partly drawn) [Compound B97, 2-(2,6-dioxopiperidin-3-yl)-6-((1R,4r)-4-((1-(4-((1R,2S)-6-hydroxy-2-phenyl-1,2,3,4-tetrahydronaphthalen-1-yl)phenyl)piperidin-4-yl)amino)cyclohexyl)-6,7-dihydropyrrolo[3,4-f]isoindole-1,3(2H,5H)-dione], the DC50 was greater than 0.1 µM.
As for `O=C1CCC(N2C(=O)c3cc4c(cc3C2=O)CN(CC2CCN(CC3CN(c5ccc([C@@H]6c7ccc(O)cc7CC[C@@H]6c6ccccc6)cc5)C3)CC2)C4)C(=O)N1` (stereo partly drawn) [Compound B62, 2-(2,6-dioxopiperidin-3-yl)-6-((1-((1-(4-((1R,2S)-6-hydroxy-2-phenyl-1,2,3,4-tetrahydronaphthalen-1-yl)phenyl)azetidin-3-yl)methyl)piperidin-4-yl)methyl)-6,7-dihydropyrrolo[3,4-f]isoindole-1,3(2H,5H)-dione], the half-maximal degradation concentration (DC50) lay within 0.01 to 0.1 µM.
`O=C1CCC(N2C(=O)c3cc4c(cc3C2=O)CN(C2CCC(NCC3CN(c5ccc([C@@H]6c7ccc(O)cc7CC[C@@H]6c6ccccc6)cc5)C3)CC2)C4)C(=O)N1` (stereo partly drawn) [Compound B101, 2-(2,6-dioxopiperidin-3-yl)-6-(4-(((1-(4-((1R,2S)-6-hydroxy-2-phenyl-1,2,3,4-tetrahydronaphthalen-1-yl)phenyl)azetidin-3-yl)methyl)amino)cyclohexyl)-6,7-dihydropyrrolo[3,4-f]isoindole-1,3(2H,5H)-dione]: the DC50 is greater than 0.1 µM.
Turning to `O=C1CCC(N2C(=O)c3cc4c(cc3C2=O)CCN(C(=O)CN2CCC3(CC2)CCN(c2ccc([C@@H]5c6ccc(O)cc6CC[C@@H]5c5ccccc5)cc2)CC3)CC4)C(=O)N1` (stereo partly drawn) [Compound B40, 2-(2,6-dioxopiperidin-3-yl)-7-(2-(9-(4-((1R,2S)-6-hydroxy-2-phenyl-1,2,3,4-tetrahydronaphthalen-1-yl)phenyl)-3,9-diazaspiro[5.5]undecan-3-yl)acetyl)-6,7,8,9-tetrahydroazepino[4,5-f]isoindole-1,3(2H,5H)-dione], the DC50 is greater than 0.1 µM.
Take `O=C1CCC(N2C(=O)c3cc4c(cc3C2=O)CN(C(=O)[C@H]2CC[C@@H](N3CC(Nc5ccc([C@@H]6c7ccc(O)cc7CC[C@@H]6c6ccccc6)cc5)C3)CC2)C4)C(=O)N1` (stereo partly drawn) [Compound B129, 2-(2,6-dioxopiperidin-3-yl)-6-((1R,4s)-4-(3-((4-((1R,2S)-6-hydroxy-2-phenyl-1,2,3,4-tetrahydronaphthalen-1-yl)phenyl)amino)azetidin-1-yl)cyclohexane-1-carbonyl)-6,7-dihydropyrrolo[3,4-f]isoindole-1,3(2H,5H)-dione]: the DC50 was greater than 0.1 µM.
For `O=C1CCC(N2C(=O)c3cc4c(cc3C2=O)CN(C2CCC(NC3CCN(c5ccc([C@@H]6c7ccc(O)cc7CC[C@@H]6c6ccccc6)cc5)CC3)CC2)C4)C(=O)N1` (stereo partly drawn) [Compound B84, 2-(2,6-dioxopiperidin-3-yl)-6-(4-((1-(4-((1R,2S)-6-hydroxy-2-phenyl-1,2,3,4-tetrahydronaphthalen-1-yl)phenyl)piperidin-4-yl)amino)cyclohexyl)-6,7-dihydropyrrolo[3,4-f]isoindole-1,3(2H,5H)-dione] the value was greater than 0.1 µM.
For `O=C1CCC(N2C(=O)c3cc4c(cc3C2=O)CN(CC(=O)N2CC3(CCN(c5ccc([C@@H]6c7ccc(O)cc7CC[C@@H]6c6ccc(F)cc6)cc5)CC3)C2)C4)C(=O)N1` (mixture of isomers) [Compound B11, 2-(2,6-dioxopiperidin-3-yl)-6-(2-(7-(4-((1R,2S)-2-(4-fluorophenyl)-6-hydroxy-1,2,3,4-tetrahydronaphthalen-1-yl)phenyl)-2,7-diazaspiro[3.5]nonan-2-yl)-2-oxoethyl)-6,7-dihydropyrrolo[3,4-f]isoindole-1,3(2H,5H)-dione] the value was less than 0.01 µM.
On to `O=C1CCC(N2Cc3cc4c(cc3C2=O)C(=O)N(CC2CN(CC3CCN(c5ccc([C@@H]6c7ccc(O)cc7CC[C@@H]6c6ccccc6)cc5)CC3)C2)C4)C(=O)N1` (stereo partly drawn) [Compound B305, 2-(2,6-dioxopiperidin-3-yl)-6-((1-((1-(4-((1R,2S)-6-hydroxy-2-phenyl-1,2,3,4-tetrahydronaphthalen-1-yl)phenyl)piperidin-4-yl)mcthyl)azctidin-3-yl)methyl)-2,3,5,6-tctrahydropyrrolo[3,4-f]isoindole-1,7-dione], for which the half-maximal degradation concentration (DC50) was greater than 0.1 µM.
Take `O=C1CCC(N2C(=O)c3cc4c(cc3C2=O)CN(C(=O)C2CCC(CN3CCN(c5ccc([C@@H]6c7ccc(O)cc7CC[C@@H]6c6ccccc6)cc5)CC3)CC2)C4)C(=O)N1` (stereo partly drawn) [Compound B114, 2-(2,6-dioxopiperidin-3-yl)-6-(4-((4-(4-((1R,2S)-6-hydroxy-2-phenyl-1,2,3,4-tetrahydronaphthalen-1-yl)phenyl)piperazin-1-yl)methyl)cyclohexane-1-carbonyl)-6,7-dihydropyrrolo[3,4-f]isoindole-1,3(2H,5H)-dione]: the DC50 is greater than 0.1 µM.
Regarding `O=C1CCC(N2C(=O)c3cc4c(cc3C2=O)CCN(CC(=O)N2CC3(CCN(c5ccc([C@@H]6c7ccc(O)cc7CC[C@@H]6c6ccccc6)cc5)CC3)C2)CC4)C(=O)N1` (stereo partly drawn) [Compound B41, 2-(2,6-dioxopiperidin-3-yl)-7-(2-(7-(4-((1R,2S)-6-hydroxy-2-phenyl-1,2,3,4-tetrahydronaphthalen-1-yl)phenyl)-2,7-diazaspiro[3.5]nonan-2-yl)-2-oxoethyl)-6,7,8,9-tetrahydroazepino[4,5-f]isoindole-1,3(2H,5H)-dione], the DC50 is greater than 0.1 µM.
As for `O=C1CCC(N2Cc3cc4c(cc3C2=O)CN(C(=O)C2CCN(CC3CN(c5ccc([C@@H]6c7ccc(O)cc7CC[C@@H]6c6ccccc6)cc5)C3)CC2)C4)C(=O)N1` (stereo partly drawn) [Compound B80, 3-(6-(1-((1-(4-((1R,2S)-6-hydroxy-2-phenyl-1,2,3,4-tetrahydronaphthalen-1-yl)phenyl)azetidin-3-yl)methyl)piperidine-4-carbonyl)-1-oxo-3,5,6,7-tetrahydropyrrolo[3,4-f]isoindol-2(1H)-yl)piperidine-2,6-dione], the DC50 was greater than 0.1 µM.
Then `O=C1CCC(N2C(=O)c3cc4c(cc3C2=O)CN(CC2(F)CCN(CC3CCN(c5ccc([C@@H]6c7ccc(O)cc7CC[C@@H]6c6ccccc6)cc5)CC3)CC2)C4)C(=O)N1` (stereo partly drawn) [Compound B270, 2-(2,6-dioxopiperidin-3-yl)-6-((4-fluoro-1-((1-(4-((1R,2S)-6-hydroxy-2-phenyl-1,2,3,4-tetrahydronaphthalen-1-yl)phenyl)piperidin-4-yl)methyl)piperidin-4-yl)methyl)-6,7-dihydropyrrolo[3,4-f]isoindole-1,3(2H,5H)-dione], with greater than 0.1 µM.
With `O=C1CCC(N2C(=O)c3cc4c(cc3C2=O)CN(CC(=O)N2CCC3(C2)CN(c2ccc([C@@H]5c6ccc(O)cc6CC[C@@H]5c5ccccc5)cc2)C3)C4)C(=O)N1` (mixture of isomers) [Compound B187, 2-(2,6-dioxopiperidin-3-yl)-6-(2-(2-(4-((1R,2S)-6-hydroxy-2-phenyl-1,2,3,4-tetrahydronaphthalen-1-yl)phenyl)-2,6-diazaspiro[3.4]octan-6-yl)-2-oxoethyl)-6,7-dihydropyrrolo[3,4-f]isoindole-1,3(2H,5H)-dione], the DC50 is 0.01 to 0.1 µM.
For the compound `O=C1CCC(N2C(=O)c3cc4c(cc3C2=O)CN(C(=O)CN2CCC3(CC2)CCN(c2ccc([C@@H]5c6ccc(O)cc6CC[C@@H]5c5ccccc5)cc2F)C3)C4)C(=O)N1` (mixture of isomers) [Compound B33, 2-(2,6-dioxopiperidin-3-yl)-6-(2-(2-(2-fluoro-4-((1R,2S)-6-hydroxy-2-phenyl-1,2,3,4-tetrahydronaphthalen-1-yl)phenyl)-2,8-diazaspiro[4.5]decan-8-yl)acetyl)-6,7-dihydropyrrolo[3,4-f]isoindole-1,3(2H,5H)-dione], the DC50 is greater than 0.1 µM.
For `O=C1CCC(N2C(=O)c3cc4c(cc3C2=O)CN(CC(=O)N2CCC3(CC2)CN(c2ccc([C@@H]5c6ccc(O)cc6CC[C@@H]5c5ccc(F)cc5Cl)cc2)C3)C4)C(=O)N1` (mixture of isomers) [Compound B259, 6-(2-(2-(4-((1R,2S)-2-(2-chloro-4-fluorophenyl)-6-hydroxy-1,2,3,4-tetrahydronaphthalen-1-yl)phenyl)-2,7-diazaspiro[3.5]nonan-7-yl)-2-oxoethyl)-2-(2,6-dioxopiperidin-3-yl)-6,7-dihydropyrrolo[3,4-f]isoindole-1,3(2H,5H)-dione] the value was 0.01 to 0.1 µM.
